Tests used:
[1] = tested on: rat model of spasticity induced by complete spinal cord transection; experiment: Rate-dependent depression (RDD) of the H-reflex in SCI rats; type: in vivo
Procedure: (§1) The efficacy of Compound 1 was measured in a rat model of spasticity induced by complete spinal cord transection. To induce muscle spasticity, a model of complete spinal cord transection cord at the eighth thoracic (T8) vertebral level was used. Five weeks after the Spinal Cord Injury (SCI), the rats were orally (P.O.) treated with Compound 1 (3, 10, or 30 mg/kg), Baclofen (4.5 mg/kg). Tizanidine (3 mg/kg) or vehicles alone (0.9% NaCl, Compound 1 vehicle), and the degree of spasticity response was measured using the rate-dependent depression (RDD) of the Hoffmann's reflex (H-reflex) and spasms induction.
(§2) Materials and Methods. […] One hundred and fifty-one SCI rats were maintained up to the end of the 5th post-injury week. One hundred and forty rats were submitted to P.O. administration of the test compounds and EMG analysis.
(§3) The rat was firmly restrained to immobilize the head. In an upright position, the gavage needle was passed along the side of the mouth. Following the roof of the mouth, the needle was advanced into the esophagus and toward the stomach. After the needle is passed to the correct length, the compound was slowly injected. The rats were randomly assigned to one of the test groups:
(§4) Electroneuromyographical recordings were performed in the right hind limbs before and 1, 2, 3, 4, 5 and 6 hours after P.O. administration.
(§5) Electromyographical (EMG) signals were amplified (100×) and bandpass filtered (300 Hz to 5 kHz; A-M Systems Amplifier. Everett, Washington; model 1700) before sampling at 13.5 kHz (Digidata 1440A, Molecular Devices). The tibial nerve was stimulated by using square pulses with increasing stimulus intensities (0.2 mA increments starting from 0.2 mA, 0.2 Hz, 0.2 ms; A-M systems stimulator, Model 2100) to obtain recruitment curves.
RDD of the H-reflex: To induce sedation, intraperitoneal injection of ketamine (100 mg/kg; Imalgen®) was used to suppress voluntary movements and increase muscle tone. Rats thorax and hindlimbs were secured on a heating pad with adhesive tape. The following series of measurements were repeated throughout the experiment: • 1. Hmax and Mmax determination: the tibial nerve was stimulated for 0.2 ms at 0.2 Hz with increasing current intensities (1-6 mA in 0.1 mA increments) until Mmax was stabilized. • 2. RDD measurement: the intensity necessary to obtain a maximal H-reflex was used for trains of 13 stimulations at 0.2, 1, 2 and 5 Hz with 2 min intervals between each train of stimulations. A whole series of measurements lasted about 15 minutes. • 3. Determination of the level of RDD: at the different frequencies, responses to the first three stimulations necessary for the depression to occur were discarded, and all the responses were expressed as percentages relative to the mean response at 0.2 Hz in the same series of measurements.
(§6) Data analysis: H-reflex RDDs and areas under the curves (AUC) were determined as a measurement of spasticity and analyzed at each time point and for each frequency with Mann-Whitney test or with Kruskal Wallis one-way analysis of variance (ANOVA) test, followed by Dunn's multiple comparisons test. P<0.05 was considered significant. Significant differences were marked with asterisks (*) according to their respective P-values: values were expressed as the mean value±standard error of the mean (SEM) in all graphs. All statistical analyses were performed using GraphPad Prism 7 (San Diego, California, USA).
Modulation of the RDD of the H-reflex. The Hoffmann reflex was used to assess primary (type 1a) afferents-mediated motoneuronal excitability in rats suffering from spasticity. Electromyograms typically show two responses: an initial M wave (FIG. 6B) resulting from the direct activation of motor axons (FIG. 6A-1), and a delayed H wave (FIG. 6B) resulting from the monosynaptic activation of motoneurons by the afferents (FIG. 6A-2). […]

[2] = tested on: rat model of spasticity induced by complete spinal cord transection; experiment: Muscle spasms evoked by tibial nerve stimulation in chronic SCI rats; type: in vivo
Procedure: as §1, §2, §3, §4, §5
Muscles spasms: In awake chronic SCI rats, muscle spasms were evoked with stimulation of the tibial nerve while performing electromyographic (EMG) recordings from the flexor digitorum brevis (FDB) muscle. Spastic spinal rats were handled nine days before the experiment and progressively habituated to be individually constrained in a plexiglass tube and to immobilization of their paralyzed hindlimbs with tape. • 1. Hmax and Mmax determination: the tibial nerve was stimulated for 0.2 ms at 0.2 Hz with increasing current intensities (1-6 mA in 0.2 mA increments) until Mmax was stabilized. • 2. A supramaximal single-pulse stimulation to elicit muscle spasms was fixed throughout the experiment (2 or 3 times the threshold intensity for M-wave) and evoked 5 times, with 60 s interstimulus intervals. EMG were rectified and averaged over 2000 ms interval post-stimulus to quantify spasms (Clamplit 8.0, Axon Instruments).
as §6
Modulation of Muscle Spasms. When the tibial nerve was stimulated in acutely (1 week after injury) injured rats, little reflexes were evoked in the FDB muscle (FIG. 8A), regardless of the stimulation intensity. In contrast, stimulation of the tibial nerve in chronic (5 weeks after injury) SCI rats produced more (P<0.0001; Mann-Whitney test; FIG. 8C) long-lasting muscle contractions (FIG. 8B). This effect is a reliable correlate of the development of spasticity. In spastic rats, spasms were induced through the FDB muscle after electrical stimulation of the tibial nerve. […]

[3] = tested on: myelin oligodendrocyte glycoprotein (MOG)-induced murine model of experimental autoimmune encephalomyelitis (EAE); experiment: Electrophysiology (EMG, transcranial motor-evoked potentials) in EAE model; type: in vivo, C57BL/6J mice; settings: 1 mg/kg IP QD, Day 10
Procedure: (§7) The effect of Compound 1 on spasticity was evaluated in a myelin oligodendrocyte glycoprotein (MOG)-induced murine model of experimental autoimmune encephalomyelitis (EAE), a central nervous system (CNS) autoimmune demyelinating disease that mimics many of the clinical and pathologic features of multiple sclerosis. Gilgun-Sherki Y., et al., Neurosciences Research 47:201-207, 2003.
(§8) Study Design and Results. This study used sixty female young adult (10-11 weeks at study initiation) C57BL/6J mice sourced from Envigo RMS (Israel), Ltd. The animals were divided into five experimental groups:
(§9) Each group received a dose volume of 5 ml/kg, and the regimen was performed daily from day 0 to 22 of the study, QD. On study day 21, half of the animals in each group was treated and tested for electrophysiology and electromyography (EMG) two hours post dosing. On study day 22, the same was performed with the remaining half of the animals in each group.
(§10) FIG. 1 provides a representation of the study. Following baseline measurements, the MOG murine model begins with a sensitization period induced by the single subcutaneous (SC) injection of MOG emulsified in Complete Freund's adjuvant (CFA) on Study Day 0, followed by intraperitoneal (IP) supplemental immunostimulation with pertussis toxin (PT) carried out once at the day of EAE induction (study day 0) and once again 48 hours later (on study day 2). […] Mechanical allodynia was tested using the Von Frey test at Baseline and on Day 9 at various timepoints. For evaluation of spasticity, transcranial motor-evoked potentials (tcMEPs) were tested at Baseline and on Days 9 and 21-22 (half of the animals on each day). All animals were administered treatment once daily, starting on Day 0 until Day 22. Animals in Group 1 received oral (PO) treatment with the vehicle. Animals in Group 2 were treated with Fingolimod (FTY720; positive control) at a dose level of 3 mg/kg. PO. Animals in Groups 3 and 4 were treated with the test item Compound 1 at a dose level of 10 mg/kg or 3 mg/kg, PO, respectively. Animals in Group 5 were treated with Tizanidine at a dose level of 1 mg/kg, IP.
Electrophysiology: The animals were subjected to electrophysiology testing at Baseline and Days 10 and 21 of the study. The EMG, latency, latency to main event, duration, peak-to-peak (P2P) amplitude, and number of subpeaks were recorded.

[4] = tested on: myelin oligodendrocyte glycoprotein (MOG)-induced murine model of experimental autoimmune encephalomyelitis (EAE); experiment: Mechanical allodynia evaluation (Von Frey testing) in EAE model; type: in vivo, C57BL/6J mice; settings: 1 mg/kg IP, Day 9
Procedure: as §7, §8, §10
Mechanical Allodynia Evaluation (Von Frey Testing): Animals were tested for mechanical allodynia using the Von Frey test at Baseline, and then on Day 9 at 0.5 hours ([…]), 1.5 hours, 3.5 hours (all groups) and 5.5 hours (Groups 1-4 only) post-dose.

[5] = tested on: myelin oligodendrocyte glycoprotein (MOG)-induced murine model of experimental autoimmune encephalomyelitis (EAE); experiment: Body weight in MOG-induced EAE model; type: in vivo, C57BL/6J mice; settings: 1 mg/kg IP QD; Day 16; vehicle 82.06±2.35%
Procedure: as §7, §8, §9
as §10, with “Animals in Group 5 were treated with Tizanidine at a dose level of 1 mg/kg, IP.” left out

[6] = tested on: myelin oligodendrocyte glycoprotein (MOG)-induced murine model of experimental autoimmune encephalomyelitis (EAE); experiment: EAE clinical score and AUC; type: in vivo, C57BL/6J mice; settings: 1 mg/kg IP QD
Procedure: as §7, §8
as §10, with “Animals in Group 1 received oral (PO) treatment with the vehicle. Animals in Group 2 were treated with Fingolimod (FTY720; positive control) at a dose level of 3 mg/kg. PO. Animals in Groups 3 and 4 were treated with the test item Compound 1 at a dose level of 10 mg/kg or 3 mg/kg, PO, respectively. Animals in Group 5 were treated with Tizanidine at a dose level of 1 mg/kg, IP.” left out

Compound | maximum effect, time (H-reflex RDD) ([1]; single P.O. 4.5 mg/kg) [h] | onset of action (H-reflex RDD) ([1]; single P.O. 4.5 mg/kg) [h] | mean relative amplitudes of the H-reflex (RDD) ([1]; single P.O. 4.5 mg/kg, SCI rats 5 weeks after injury) | maximum effect, time (muscle spasms) ([2]; single P.O. 4.5 mg/kg) [h] | muscle spasms (AUC) ([2]; single P.O. 4.5 mg/kg) | onset of action (muscle spasms) ([2]; single P.O. 4.5 mg/kg) [h] | latency until reaching the main event ([3]; vehicle 10.05±2.59 ms) [ms] | peak-to-peak (P2P) amplitude ([3]; vehicle 7681.17±1505.12 μV) [μV] | withdrawal force threshold (Von Frey) ([4]; 3.5 hours post dosing, vehicle 0.78±0.06 g) [g] | withdrawal force threshold compared to vehicle ([4]; all timepoints (0.5, 1.5, and 3.5 hours) post-dose) | mean BW presented as percentage from Baseline [5] [%] | maximum effect, time (H-reflex RDD) ([1]; single P.O. 3 mg/kg) [h] | onset of action (H-reflex RDD) ([1]; single P.O. 3 mg/kg) [h] | mean relative amplitudes of the H-reflex (RDD), effect on spasticity ([1]; single P.O. 3 mg/kg, SCI rats 5 weeks after injury) | clinical score compared to the vehicle [6] | maximum effect, time (muscle spasms) ([2]; single P.O. 3 mg/kg) [h] | muscle spasms (AUC) ([2]; single P.O. 3 mg/kg) | onset of action (muscle spasms) ([2]; single P.O. 3 mg/kg) [h]
NCC(CC(=O)O)c1ccc(Cl)cc1 (stereo not drawn) [Baclofen, reference compound] | 5 | 1 | significantly reduced | 2 | reduced | 1 | – | – | – | – | – | – | – | – | – | – | – | –
Clc1ccc2nsnc2c1NC1=NCCN1 [Tizanidine, reference compound] | – | – | – | – | – | – | 5.64 ± 0.19 | 13488.71±1234.10 | 1.32 ± 0.15 | higher withdrawal force threshold | 91.31±1.59 | 2 | 2 | significantly reduced | did not result in a significant reduction | 3 | reduced | 2

— US12648939B2, “Compounds and methods for treating spasticity” (Lexicon Pharmaceuticals, Inc., priority 2022, dated 2026)
